# Laboratory results taken from EPA's ToxRefDB 2.
# Assays:
# dog [1] = details: Sub-acute repeat dose toxicity; beagle; Oral; Gavage/Intubation; dose end: 16 day; group: systemic; systemic / in life observation / clinical signs / abnormal feces + systemic / in life observation / clinical signs / emesis + systemic / in …
# rat [2] = details: Sub-acute repeat dose toxicity, sprague dawley, Oral, Gavage/Intubation, dose end: 15 day, group: systemic
# rat [3] = details: Subchronic oral toxicity in rodents, sprague dawley, Gavage/Intubation, dose end: 92 day, group: systemic
# dog [4] = details: Sub-acute repeat dose toxicity; beagle; Oral; Gavage/Intubation; dose end: 23 day; group: systemic; systemic / in life observation / clinical signs / abnormal feces + systemic / in life observation / clinical signs / watery stools
# dog [5] = details: Sub-acute repeat dose toxicity; beagle; Oral; Gavage/Intubation; dose end: 21 day; group: systemic; systemic / in life observation / clinical signs / abnormal feces + systemic / in life observation / clinical signs / watery stools
# rat [6] = details: Sub-acute repeat dose toxicity, Oral, Gavage/Intubation, dose end: 12 day, group: systemic
# dog [7] = details: Subchronic oral toxicity in nonrodent, beagle, Gavage/Intubation, dose end: 92 day, group: systemic
# rabbit [8] = details: Sub-acute repeat dose toxicity, new zealand white, Oral, Gavage/Intubation, dose end: 5 day, group: systemic
# rat [9] = details: Prenatal developmental toxicity study, sprague dawley, Oral, Feed, dose end: 22 GD
# rabbit [10] = details: Prenatal developmental toxicity study, new zealand white, Oral, Gavage/Intubation, dose end: 28 GD
# rat [11] = details: Subchronic oral toxicity in rodents, sprague dawley, [Not Specified], dose end: 90 day, group: systemic
# rat [12] = details: Subchronic oral toxicity in rodents, sprague dawley, Feed, dose end: 13 week, group: systemic
# rat [13] = details: Prenatal developmental toxicity study, sprague dawley, Oral, Gavage/Intubation, dose end: 21 GD
# rat [14] = details: Prenatal developmental toxicity study, sprague dawley, Oral, Gavage/Intubation, dose end: 21 GD; remark: listed apart in the source
# rat [15] = details: Subchronic oral toxicity in rodents, other, Feed, dose end: 13 week, group: systemic
# rat [16] = details: Subchronic oral toxicity in rodents, sprague dawley, Feed, dose end: 14 week, group: systemic
# dog [17] = details: Chronic toxicity, beagle, Oral, Feed, dose end: 52 week, group: systemic
# mouse [18] = details: Subchronic oral toxicity in rodents, cd1, Feed, dose end: 91 day, group: systemic
# dog [19] = details: Subchronic oral toxicity in nonrodent, beagle, Feed, dose end: 13 week, group: systemic, systemic / hematology / anemia / anemia - hemolytic + systemic / hematology / erythrocyte (rbc) count differential / erythrocyte (rbc) + …
# mouse [20] = details: Carcinogenicity; cd1; Oral; Feed; dose end: 18 month; group: systemic; systemic / in life observation / body weight / body weight gain + systemic / in life observation / clinical signs / fur (altered appearance…
# rat [21] = details: Combined chronic toxicity/carcinogenicity, sprague dawley, Oral, Feed, dose end: 24 month, group: systemic
# [22] = systemic / in life observation / mortality / mortality + systemic / pathology gross / stomach / discolored + systemic / pathology gross / …
# [23] = systemic / in life observation / body weight / body weight gain + systemic / in life observation / food consumption / food consumption
# [24] = systemic / in life observation / body weight / body weight gain + systemic / in life observation / food consumption / food consumption + …
# [25] = systemic / in life observation / body weight / body weight + systemic / in life observation / clinical signs / red or crusty deposits around…
# [26] = systemic / in life observation / clinical signs / salivation + systemic / organ weight / liver / absolute
# [27] = systemic / clinical chemistry / [other] / [other] + systemic / clinical chemistry / cytochrome p450, nos / cytochrome p450, nos + systemic…
# [28] = systemic / in life observation / body weight / body weight + systemic / in life observation / clinical signs / abnormal feces + systemic / …
# [29] = group: developmental, systemic / in life observation / body weight / fetal weight
# [30] = group: maternal, systemic / in life observation / body weight / body weight + systemic / in life observation / body weight / body weight gain + systemic / in…
# [31] = group: maternal, systemic / in life observation / body weight / body weight gain
# [32] = group: developmental, developmental / developmental malformation / bone / incomplete ossification + systemic / in life observation / body weight / fetal weight
# [33] = group: maternal, systemic / in life observation / body weight / body weight gain + systemic / in life observation / food consumption / food consumption + …
# [34] = systemic / hematology / methemoglobin / methemoglobin
# [35] = systemic / in life observation / body weight / body weight + systemic / in life observation / body weight / body weight gain + systemic / in…
# [36] = systemic / pathology microscopic / spleen / hematopoietic cell proliferation + systemic / pathology microscopic / spleen / pigmentation
# [37] = systemic / hematology / erythrocyte (rbc) count differential / erythrocyte (rbc) + systemic / hematology / hematocrit (hct) / hematocrit (…
# [38] = systemic / in life observation / body weight / body weight gain
# [39] = systemic / in life observation / body weight / body weight gain + systemic / in life observation / body weight / body weight + systemic / in…
# [40] = systemic / hematology / erythrocyte (rbc) count differential / erythrocyte (rbc) + systemic / hematology / heinz body / heinz body + …
# [41] = systemic / organ weight / liver / absolute + systemic / organ weight / liver / relative to body weight + systemic / organ weight / liver / …
# [42] = systemic / pathology microscopic / spleen / pigmentation
compound,measurement,setting,value
CCC(CC)Nc1cc(C)nc(Oc2c(C)cc(C)cc2C)c1C,LEL,dog [1],20 mg/kg/day
same,LOAEL,dog [1],> 20 mg/kg/day
same,NEL,dog [1],10 mg/kg/day
same,NOAEL,dog [1],≥ 20 mg/kg/day
same,LEL,rat [2]; systemic / in life observation / body weight / body weight + systemic / in life observation / body weight / body weight gain + systemic / …,100 mg/kg/day
same,LOAEL,rat [2]; [22],> 1000 mg/kg/day
same,NOAEL,rat [2]; [22],≥ 1000 mg/kg/day
same,LEL,rat [3]; [23],1 mg/kg/day
same,NEL,rat [3]; [23],< 1 mg/kg/day
same,LOAEL,rat [3]; [24],> 100 mg/kg/day
same,NOAEL,rat [3]; [24],≥ 100 mg/kg/day
same,LEL,dog [4],1 mg/kg/day
same,LOAEL,dog [4],> 1 mg/kg/day
same,NEL,dog [4],< 1 mg/kg/day
same,NOAEL,dog [4],≥ 1 mg/kg/day
same,LEL,dog [5],5 mg/kg/day
same,LOAEL,dog [5],> 5 mg/kg/day
same,NEL,dog [5],1 mg/kg/day
same,NOAEL,dog [5],≥ 5 mg/kg/day
same,LOAEL,rat [6]; [25],> 500 mg/kg/day
same,NOAEL,rat [6]; [25],≥ 500 mg/kg/day
same,LEL,rat [6]; [26],250 mg/kg/day
same,NEL,rat [6]; [26],< 250 mg/kg/day
same,LOAEL,dog [7]; [27],> 20 mg/kg/day
same,NOAEL,dog [7]; [27],≥ 20 mg/kg/day
same,LEL,dog [7]; systemic / in life observation / clinical signs / abnormal feces,2 mg/kg/day
same,LOAEL,rabbit [8]; [28],> 500 mg/kg/day
same,NEL,rabbit [8]; [28],50 mg/kg/day
same,NOAEL,rabbit [8]; [28],≥ 500 mg/kg/day
same,LEL,rabbit [8]; systemic / in life observation / food consumption / food consumption,100 mg/kg/day
COC(=O)N(C(=O)N1CO[C@@]2(C(=O)OC)Cc3cc(Cl)ccc3C2=N1)c1ccc(OC(F)(F)F)cc1 [Indoxacarb],LEL,rat [9]; [29],4.14 mg/kg/day
same,LOAEL,rat [9]; [29],4.14 mg/kg/day
same,NEL,rat [9]; [29],2.18 mg/kg/day
same,NOAEL,rat [9]; [29],2.18 mg/kg/day
same,LOAEL,rat [9]; [30],2.18 mg/kg/day
same,NOAEL,rat [9]; [30],1.11 mg/kg/day
same,LEL,rat [9]; [31],1.11 mg/kg/day
same,NEL,rat [9]; [31],< 1.11 mg/kg/day
same,LEL,rabbit [10]; [32],1000 mg/kg/day
same,LOAEL,rabbit [10]; [32],1000 mg/kg/day
same,NEL,rabbit [10]; [32],500 mg/kg/day
same,NOAEL,rabbit [10]; [32],500 mg/kg/day
same,LOAEL,"rabbit [10]; group: maternal, systemic / in life observation / body weight / body weight gain + systemic / in life observation / food consumption / food consumption",1000 mg/kg/day
same,LEL,rabbit [10]; [33],1000 mg/kg/day
same,NEL,rabbit [10]; [33],500 mg/kg/day
same,NOAEL,rabbit [10]; [33],500 mg/kg/day
same,LEL,rat [11]; [34],0.56 mg/kg/day
same,NEL,rat [11]; [34],< 0.56 mg/kg/day
same,LOAEL,rat [11]; [35],4.1 mg/kg/day
same,NOAEL,rat [11]; [35],1.7 mg/kg/day
same,LOAEL,rat [12]; [35],3.78 mg/kg/day
same,NOAEL,rat [12]; [35],2.13 mg/kg/day
same,LEL,rat [12]; [36],0.76 mg/kg/day
same,NEL,rat [12]; [36],< 0.76 mg/kg/day
same,LEL,rat [13]; [29],4 mg/kg/day
same,LOAEL,rat [13]; [29],4 mg/kg/day
same,NEL,rat [13]; [29],2 mg/kg/day
same,NOAEL,rat [13]; [29],2 mg/kg/day
same,LEL,rat [13]; [30],4 mg/kg/day
same,LOAEL,rat [13]; [30],4 mg/kg/day
same,NEL,rat [13]; [30],2 mg/kg/day
same,NOAEL,rat [13]; [30],2 mg/kg/day
same,LEL,rat [14]; [29],500 mg/kg/day
same,LOAEL,rat [14]; [29],> 1000 mg/kg/day
same,NEL,rat [14]; [29],100 mg/kg/day
same,NOAEL,rat [14]; [29],≥ 1000 mg/kg/day
same,LEL,rat [14]; [30],100 mg/kg/day
same,LOAEL,rat [14]; [30],100 mg/kg/day
same,NEL,rat [14]; [30],10 mg/kg/day
same,NOAEL,rat [14]; [30],10 mg/kg/day
same,LEL,rat [15]; [37],1.5 mg/kg/day
same,LOAEL,rat [15]; [35],6.25 mg/kg/day
same,NEL,rat [15]; [35],0.75 mg/kg/day
same,NOAEL,rat [15]; [35],3 mg/kg/day
same,LEL,rat [16]; [38],4.9 mg/kg/day
same,LOAEL,rat [16]; [38],7.5 mg/kg/day
same,NEL,rat [16]; [39],2.5 mg/kg/day
same,NOAEL,rat [16]; [39],3.7 mg/kg/day
same,LOAEL,dog [17]; [40],18 mg/kg/day
same,NOAEL,dog [17]; [40],2.3 mg/kg/day
same,LEL,dog [17]; [41],1.3 mg/kg/day
same,NEL,dog [17]; [41],< 1.3 mg/kg/day
same,LOAEL,mouse [18]; [35],30 mg/kg/day
same,NOAEL,mouse [18]; [35],16 mg/kg/day
same,LEL,mouse [18]; [42],12 mg/kg/day
same,NEL,mouse [18]; systemic / pathology microscopic / spleen / pigmentation + systemic / pathology microscopic / spleen / hyperplasia,5.5 mg/kg/day
same,LEL,dog [19],19 mg/kg/day
same,LOAEL,dog [19],19 mg/kg/day
same,NEL,dog [19],5 mg/kg/day
same,NOAEL,dog [19],5 mg/kg/day
same,LEL,mouse [20],13.8 mg/kg/day
same,LOAEL,mouse [20],13.8 mg/kg/day
same,NEL,mouse [20],2.63 mg/kg/day
same,NOAEL,mouse [20],2.63 mg/kg/day
same,LOAEL,rat [21]; [37],2.13 mg/kg/day
same,NOAEL,rat [21]; [37],1.04 mg/kg/day
same,LEL,rat [21]; [42],0.798 mg/kg/day
